Test results: patent US7049337B2 (Wayne State University, priority 2000, dated 2006)
Read-outs that look alike come from different tables or passages of the source.

Tests used:
human D3 receptor = target: T1, human D3 receptor (Homo sapiens, UniProt P35462); assay: [3H]spiperone binding to cloned human D3 receptors in HEK 293 cell membranes; conditions: for D3 receptor activity compared with control, in words: displacing [3H]spiperone from D3 receptors in HEK cells, racemic compounds versus (+)-7-OH-DPAT; for D2L/D3L: ratio of Ki D2L to Ki D3; for Differential activity (D2L/D3) compared with control, in words: versus (+)-7-OH-DPAT control
T1 construct: expressed in transfected cells; host or cells: HEK 293 cells, stably transfected (Watts and colleagues, Oregon Health Sciences University); membranes prepared from the cells
T1 sequence (P35462 whole entry): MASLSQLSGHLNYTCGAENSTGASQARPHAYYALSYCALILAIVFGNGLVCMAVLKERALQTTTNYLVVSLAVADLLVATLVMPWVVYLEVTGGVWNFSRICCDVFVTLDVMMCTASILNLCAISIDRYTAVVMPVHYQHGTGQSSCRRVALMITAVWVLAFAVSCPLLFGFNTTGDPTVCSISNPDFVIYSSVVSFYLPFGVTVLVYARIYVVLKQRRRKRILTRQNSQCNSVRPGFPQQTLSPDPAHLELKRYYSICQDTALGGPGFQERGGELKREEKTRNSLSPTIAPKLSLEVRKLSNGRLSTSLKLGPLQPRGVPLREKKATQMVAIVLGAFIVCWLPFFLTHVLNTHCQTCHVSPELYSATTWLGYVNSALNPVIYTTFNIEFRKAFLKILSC
Description: (§1) The target compounds synthesized were assayed for differential CNS activity by binding studies employing cloned human receptors expressed in HEK cells. […] The compounds were evaluated for their binding at the D2 and D3 receptors.
(§2) Binding affinities of these novel compounds were assessed according to previously published procedures. V. J. Watts et al., EUR. J. PHARMACOL., 1993, 239,271; V. J. Watts et al., EUR. J. PHARMACOL., 1996, 50, 966. Human embryonic kidney (HEK) 293 cells were stably transfected with cDNA for the human D2L and D3 receptors by Watts and colleagues at Oregon Health Sciences University in accordance with published procedures; V. J. Watts, MOL. PHARMACOL, op. cit., and graciously shipped to the University of Illinois for receptor binding assays. Membranes were prepared from the cells as described previously, V. J. Watts et al., EUR. J. PHARMACOL., 1993, op. cit. […] (+)-Butaclamol (2 ,μM) was used to define nonspecific binding. Assays were terminated with a 24-pin Brandel harvester as described previously, M. E. A. Reith et al., BIOL. CHEM. 1986, 261, 7300. IC50 values were estimated by nonlinear regression analysis with the ALLFIT equation, and converted to inhibition constants (Ki) by the Cheng-Prusoff equation as in previous work, Reith et al., J. BIOL. CHEM., op. cit.

human D2L receptor = target: T2, human D2L receptor (Homo sapiens, UniProt P14416); assay: [3H]spiperone binding to cloned human D2L receptors in HEK 293 cell membranes
T2 construct: expressed in transfected cells; host or cells: HEK 293 cells, stably transfected (Watts and colleagues, Oregon Health Sciences University); membranes prepared from the cells
T2 sequence (P14416 whole entry): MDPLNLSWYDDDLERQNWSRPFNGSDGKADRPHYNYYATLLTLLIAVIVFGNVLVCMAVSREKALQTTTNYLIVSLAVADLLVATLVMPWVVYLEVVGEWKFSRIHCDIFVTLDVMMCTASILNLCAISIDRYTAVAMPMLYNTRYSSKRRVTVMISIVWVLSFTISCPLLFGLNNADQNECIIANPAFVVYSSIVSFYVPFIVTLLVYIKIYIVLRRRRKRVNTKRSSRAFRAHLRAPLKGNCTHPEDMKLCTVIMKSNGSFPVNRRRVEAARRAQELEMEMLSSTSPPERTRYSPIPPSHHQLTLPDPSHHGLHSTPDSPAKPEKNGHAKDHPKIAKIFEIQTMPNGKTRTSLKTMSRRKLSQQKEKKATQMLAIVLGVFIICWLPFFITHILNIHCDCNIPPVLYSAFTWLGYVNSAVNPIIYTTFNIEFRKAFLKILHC
Description: as §1, §2

[1] = cloned human D2L in HEK cells, 0.4 nM [3H]spiperone, 1 h, 30° C., no GTP, mean ± spread (n)

| Ki (human D3 receptor; cloned human D3 in HEK cells, 0.4 nM [3H]spiperone, 1 h, 30° C., no GTP, mean ± spread (n)) [nM] | Compound | Ki (human D3 receptor) [nM] | D3 receptor activity compared with control, in words (human D3 receptor) | D2L/D3L (human D3 receptor) | Differential activity (D2L/D3) compared with control, in words (human D3 receptor) | Ki (human D2L receptor; [1]) [nM] | Ki (human D3 receptor; read-out: D3 HEK Cells [^3H]spiperone, Ki, cloned human D3 in HEK cells, 0.4 nM [3H]spiperone, 1 h, 30° C., no GTP, mean ± spread (n)) [nM] | Ki (human D2L receptor; read-out: D2L HEK Cells [^3H]spiperone, Ki, […] nM [3H]spiperone, 1 h, 30° C., no GTP, mean ± spread (n)) [nM] |
| --- | --- | --- | --- | --- | --- | --- | --- | --- |
|  | C#CCN(CCCC)C1CCc2ccc(O)cc2C1 (racemic) [Example 4, (R,S)-trans-7-Hydroxy-2-[N-propynyl-N-(butyl-amino]tetralin] | 4.9 ± 1.2 | about as active as the (+) isomer | 108 | slightly greater activity differential | 534 ± 72 |  |  |
|  | C#CCN(CC)C1CCc2ccc(O)cc2C1 (racemic) [Example 5, (R,S)-trans-7-Hydroxy-2-[N-propynyl-N-ethyl-amino]tetralin] | 13.8 ± 2.8 | high activity, though not as high as the compound of Example 4 or the control | 108 | as high as the compound of Example 4 | 1490 |  |  |
|  | C#CCN(CCc1ccc(F)cc1)C1CCc2ccc(O)cc2C1 (racemic) [Example 6, (R,S)-trans-7-Hydroxy-2-[N-propynyl-N-ethyl(4′-fluorophenyl)amino]tetralin] | 14.5 ± 4.1 |  | 111 | about the same as the control | 1610 |  |  |
|  | C#CCN(CCc1cccs1)C1CCc2ccc(O)cc2C1 (racemic) [Example 7, (R,S)-trans-7-Hydroxy-2-[N-propynyl-N-ethyl(thienyl)-amino]tetralin] |  | about the same as the control | 211 | more than double the activity differential of the control |  | 8 ± 0.3 | 1700 |
| 23.5 ± 4.7 | C#CCN(CCCC#N)C1CCc2ccc(O)cc2C1 (racemic) [Example 8, (R,S)-trans-7-Hydroxy-2-[N-propynyl-N-(3′-cyano-1′-propyl)amino]tetralin] |  | about the same as the control | 353 | more than double the activity differential of the control | 8310 |  |  |
